Reference: PMC11994375, “In vitro activation of the CB1 receptor by the semi‐synthetic cannabinoids hexahydrocannabinol (HHC), hexahydrocannabinol acetate (HHC‐O) and hexahydrocannabiphorol (HHC‐P)” (Drug Testing and Analysis, 2024)

How the values were obtained:
human CB1 receptor [1] = biological target: T1, human CB1 receptor (Homo sapiens, UniProt P21554); assay: aequorin luminescence agonist assay, CHO-K1 cells; assay type: cell-based; details: read-out: EC50 (95% CI)
T1 construct: gene CNR1; recombinant receptor in CHO-K1 AequoScreen cells (aequorin luminescence line, Revvity ES-110-AF)
T1 sequence (P21554 whole entry): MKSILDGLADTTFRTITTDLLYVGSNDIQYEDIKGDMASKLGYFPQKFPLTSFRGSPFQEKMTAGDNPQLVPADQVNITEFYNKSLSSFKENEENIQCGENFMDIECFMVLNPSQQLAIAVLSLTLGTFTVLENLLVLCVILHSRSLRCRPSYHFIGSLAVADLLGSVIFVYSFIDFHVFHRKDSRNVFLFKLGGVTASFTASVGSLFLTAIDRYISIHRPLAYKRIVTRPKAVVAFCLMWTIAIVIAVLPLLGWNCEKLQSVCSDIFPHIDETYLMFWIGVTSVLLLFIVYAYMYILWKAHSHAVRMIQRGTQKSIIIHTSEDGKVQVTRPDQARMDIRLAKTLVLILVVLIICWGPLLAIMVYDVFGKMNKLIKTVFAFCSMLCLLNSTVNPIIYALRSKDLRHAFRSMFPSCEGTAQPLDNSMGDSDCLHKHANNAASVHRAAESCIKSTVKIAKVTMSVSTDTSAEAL
Excerpt: aequorin luminescence agonist assay, CHO-K1 cells on human CB1 receptor

human CB1 receptor [2] = biological target: T1, human CB1 receptor; assay: aequorin luminescence agonist assay, CHO-K1 cells; assay type: cell-based; details: agonist mode, tested up to 60 uM; silanized plastic, glass vials; 0.05% BSA assay medium

Structure (SMILES)	EC50 (human CB1 receptor [1])	EC50 n.d. (human CB1 receptor [2])
CCCCCc1cc(O)c2c(c1)OC(C)(C)[C@@H]1CC[C@H](C)C[C@@H]21 [(9S)-HHC]	1190 nM	–
CCCCCc1cc(OC(C)=O)c2c(c1)OC(C)(C)[C@@H]1CC[C@H](C)C[C@@H]21 [(9S)-HHC-O]	–	(9S)‐HHC‐O did not activate the CB1 receptor
CCCCCc1cc(OC(C)=O)c2c(c1)OC(C)(C)[C@@H]1CC[C@@H](C)C[C@@H]21 [(9R)-HHC-O]	> 33000 nM	–
CCCCCCCc1cc(O)c2c(c1)OC(C)(C)[C@@H]1CC[C@@H](C)C[C@@H]21 [(9R)-HHC-P]	44.4 nM	–
CCCCCCCc1cc(O)c2c(c1)OC(C)(C)[C@@H]1CC[C@H](C)C[C@@H]21 [(9S)-HHC-P]	134 nM	–
CCCCCn1cc(C(=O)c2cccc3ccccc23)c2ccccc21 [JWH-018, reference compound]	22.5 nM	–
CCCCCc1cc(O)c2c(c1)OC(C)(C)[C@@H]1CC[C@@H](C)C[C@@H]21 [(9R)-HHC]	101 nM	–
